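Where inhibition never reached the appropriate level, the endpoint shown equals the highest concentration tested. Otherwise, values were interpolated linearly from a five-concentration, 48-hour dose response in 96-well plates. TGI marks complete inhibition of growth.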
Experiments:
Assay in all cases: NCI tumour cell line growth inhibition, 48 h
HS 578T breast = test system: HS 578T breast
UO-31 renal = test system: UO-31 renal
PC-3 prostate = test system: PC-3 prostate
ACHN renal = test system: ACHN renal
MOLT-4 leukemia = test system: MOLT-4 leukemia
UACC-62 melanoma = test system: UACC-62 melanoma
SF-539 CNS = test system: SF-539 CNS
SK-MEL-5 melanoma = test system: SK-MEL-5 melanoma
NCI-H460 lung = test system: NCI-H460 lung
HCT-15 colon = test system: HCT-15 colon
T-47D breast = test system: T-47D breast
SF-295 CNS = test system: SF-295 CNS
SK-MEL-28 melanoma = test system: SK-MEL-28 melanoma

Compound | TGI (HS 578T breast) [µM] | TGI (UO-31 renal) [µM] | TGI (PC-3 prostate) [µM] | TGI (ACHN renal) [µM] | TGI (MOLT-4 leukemia) [µM] | TGI (UACC-62 melanoma) [µM] | TGI (SF-539 CNS) [µM] | TGI (SK-MEL-5 melanoma) [µM] | TGI (NCI-H460 lung) [µM] | TGI (HCT-15 colon) [µM] | TGI (T-47D breast) [µM] | TGI (SF-295 CNS) [µM] | TGI (SK-MEL-28 melanoma) [µM]
CC(=O)N1CC[N+](C)(CCCCN2c3ccccc3Sc3cc(N=[N+]=[N-])ccc32)CC1 | > 100 | > 100 | > 100 | > 100 | > 100 | > 100 | > 100 | > 100 | > 100 | > 100 | > 100 | > 100 | > 100
COc1cc(C2c3[nH]c4ccc(F)cc4c3C[C@H]3COC(=O)N23)cc(OC)c1O (some centres not stated) | 13 | 28.9 | > 100 | 26.4 | > 100 | 32.6 | 11.4 | 34.7 | 19.8 | 25.2 | > 100 | 53.8 | 33.6
COc1cc(CNC(=O)[C@H](Cc2ccc(O)cn2)NC(C)=O)cc(OC)c1 | > 100 | > 100 | > 100 | > 100 | > 100 | > 100 | > 100 | > 100 | > 100 | > 100 | > 100 | > 100 | > 100
BrCCC[P+](c1ccccc1)(c1ccccc1)c1ccccc1 | > 79.6 | > 100 | > 100 | > 100 | > 94.6 | 64.2 | > 100 | 21 | > 100 | > 100 | 36.5 | > 100 | > 100
COc1cc(-c2c3c([nH]c(=O)c2C#N)-c2cc([N+](=O)[O-])ccc2CCC3)cc(OC)c1OC | 73.3 | 75.1 | > 100 | 70.6 | > 100 | 32.1 | > 100 | 26.7 | 67 | > 100 | > 100 | 33.1 | > 100
CC(C)c1ccc2c(c1)C=C1OC(=O)[C@]3(C)CCC[C@@]2(C)C13 (some centres not stated) | > 100 | > 100 | > 100 | > 100 | > 100 | > 100 | > 100 | > 100 | > 100 | > 100 | > 100 | > 100 | > 100
O=C1NC(N/N=C/c2ccccc2)=N/C1=C\c1cccs1 | 9.94 | 48.7 | 26.7 | 33.5 | > 92.3 | 38 | 26.6 | 20.7 | > 100 | 48.5 | > 100 | 34.6 | 37.7
COP(=O)(OC)C(O)/C=C(\Cl)c1ccc(Cl)cc1 (configuration not stated) | > 100 | > 100 | > 100 | > 100 | 86.1 | > 100 | > 100 | 67.8 | > 100 | > 100 | > 100 | > 100 | > 100
COc1cc(S(=O)(=O)Nc2ccc(-c3csc(N4C(=O)C(C)SC4c4ccccc4O)n3)cc2)ccc1Cl (configuration not stated) | 90.4 | > 100 | > 100 | > 100 | > 100 | > 100 | > 100 | > 100 |  | > 100 | 31 | > 100 | 55.6
Cc1cc(C)nc(NS(=O)(=O)c2ccc(NNC(=O)c3cccc4c(NNc5ccc(S(=O)(=O)Nc6nc(C)cc(C)n6)cc5)c5ccccc5nc34)cc2)n1 | 71.9 | 51.1 | 51 | 33.3 | 66.8 | 58.7 | 43.6 | 33 | 51.1 | 36.1 | 78.9 | 88.1 | 48.7
CCOC(=O)NC(NNc1ccc([N+](=O)[O-])cc1[N+](=O)[O-])(C(F)(F)F)C(F)(F)F | > 100 | 57.6 | > 100 | > 100 | > 100 | > 100 | 74.3 | > 100 | > 100 | > 100 | > 100 | > 100 | > 100
COc1cc(C=Nc2ccc(S(N)(=O)=O)cc2)cc(OC)c1 | > 50 | > 50 | > 50 | > 50 | > 50 | > 50 | > 50 | > 50 | > 50 | > 50 | > 50 | > 50 | > 50
CCOC(=O)/C=C(\C(=O)OCC)n1cnc2c(N)ncnc21 | 51.5 | 30 | 26.1 | 18.5 | 6.89 | 23.8 | 29.3 | 28.6 | 38.7 | 12.2 | 14 | 32.1 | 27.8
c1ccc2c(c1)CCN1CCc3c([nH]c4ccccc34)C21 (configuration not stated) | > 100 | > 100 | 98.5 | > 100 | 70.6 | > 100 | > 100 | 29.7 | > 100 | > 100 | > 100 | 57.4 | 48.8
COC1=CC(=O)c2c(O)ccc(O)c2C1=O | 19.5 | 34.9 | 41.4 | 34.4 | 44.3 | 4.21 | 10.4 | 2.65 | 12.9 | 6.91 | 41.3 | 4.35 | 3.71
COc1ccc(C(=O)/C=C/c2ccc(OCC(=O)O)cc2)cc1 | > 100 | > 100 | > 100 | > 100 | > 100 | > 100 | > 100 | > 100 |  | > 100 | > 100 | > 100 | > 100
Cc1nn(-c2ccccc2)c2c1C(c1cc3ccccc3nc1Cl)NC(=S)N2 (configuration not stated) | > 100 | 50.4 | > 100 | > 100 | > 100 | > 100 | 67.2 | > 100 | > 100 | > 100 | > 100 | > 100 | 
O=C(O)c1cncc(C(=O)O)c1 | > 100 | > 100 | > 100 | > 100 | > 100 | > 100 | > 100 | > 100 | > 100 | > 100 | > 100 | > 100 | > 100

Compound | TGI (HS 578T breast) [µM] | TGI (UO-31 renal) [µM] | TGI (PC-3 prostate) [µM] | TGI (ACHN renal) [µM] | TGI (MOLT-4 leukemia) [µM] | TGI (UACC-62 melanoma) [µM] | TGI (SF-539 CNS) [µM] | TGI (SK-MEL-5 melanoma) [µM] | TGI (NCI-H460 lung) [µM] | TGI (HCT-15 colon) [µM] | TGI (T-47D breast) [µM] | TGI (SF-295 CNS) [µM] | TGI (SK-MEL-28 melanoma) [µM]
C=C(CN(C)C)C(=O)c1cc(C)ccc1C | > 91.3 | 19.1 | 28.2 | 11.8 | 3.86 | 29.7 | 19.2 | 27.2 | 44.6 | 10.6 | 15.7 | 34.1 | 42.5
N#CC(C#N)=Cc1ccc(C=C2SC3=C(SCCS3)S2)s1 | > 100 | > 100 | > 100 | > 100 | > 100 | > 100 | 28.1 | > 100 | > 100 | > 100 | > 100 | > 100 | > 100
O=C1C=CC[C@H](/C=C/C[C@@H](O)C[C@H](O)/C=C/c2ccccc2)O1 | 60.2 | 25.9 | 27.8 | 27.8 | 39.6 | 29.4 | 21.5 | 27.4 | 35.3 | 23 | 33.3 | 29.8 | 30.8
OCCCCn1cc(Cn2ncc3c(SCc4ccccc4)ncnc32)nn1 | > 100 | > 100 | > 100 | > 100 | 77.3 | > 100 | > 100 | 54.5 | > 100 | > 100 | > 100 | > 100 | > 100
c1nc(SSc2ncnc3nc[nH]c23)c2[nH]cnc2n1 | > 100 | > 100 | > 100 | > 100 | > 40.4 | 0.0568 | > 100 | 37.6 | > 100 | > 100 | > 100 | 43.7 | > 100
c1cc2cc(c1)CN1CCNCCN(CCNCC1)Cc1cccc(c1)CN1CCNCCN(CCNCC1)C2 | > 100 | > 100 | > 100 | > 100 | > 100 | > 100 | > 100 | > 100 | > 100 | > 100 | > 100 | > 100 | > 100
O=c1[nH]cc(N(CCCl)CCCl)c(=O)[nH]1 | 301 | 201 | 188 | 92.6 | 28.3 | 60.6 | 60.5 | 115 | 155 | 251 | 183 | 246 | 204
COc1ccc2c[n+](C)c3c4cc(OC)c(OC)cc4ccc3c2c1 | 16.1 | 84.6 | 16.2 | > 92.5 | 32.3 | 41.3 | 24.9 | 29.3 | 19.3 | > 70.4 | 18.9 | 34.8 | 40.1
COc1ccc(C(=O)Cn2c(C(C)=O)nc3ccccc32)cc1 | > 100 | > 57.3 | > 100 | > 100 | > 100 | > 92.9 | > 100 | > 100 | > 61.7 | > 100 | > 78.7 | 80.6 | > 100
COCC(=O)OC1CCn2c1nc1c2C(=O)C(C)=C(NC(C)=O)C1=N (configuration not stated) | 18.8 | 24 | 9.01 | 19.9 | 5.2 | 3.34 | 3.87 | 5.92 | 31 | 27.5 | 6.98 | 30.4 | 10.6
CC1(C)CCCCCC(C)(CCCCCCCCCCCO)C1=O (configuration not stated) | 32.4 | 30.9 | 30 | 25.7 | 46.3 | 29.4 | 30.9 | 31.3 | 31.9 | 29.7 | 29.8 | 29.6 | 32
c1ccc(/N=N\Nc2ccc(-c3nc4ccccc4o3)cc2)nc1 | > 100 | > 100 | > 100 | > 100 | 61.1 | > 100 | > 100 | 30.3 | > 100 | > 100 | 87.1 |  | > 100
O=c1c2ccccc2c2c1c1c3ccccc3c(=O)c1c1c3ccccc3c(=O)c21 | > 100 | > 100 | > 100 | > 100 | > 100 | > 100 | > 100 | > 100 | > 100 | > 100 | > 100 | > 100 | > 100
Cc1cc(N(CCC#N)CCC#N)ccc1/C(N=Nc1ccccc1)=N\NC(=O)c1ccccc1 | 75.8 | 65.1 | > 100 | 41.3 | 64.5 | 45.5 | 54.1 | > 100 | 91 | 48 | 49 | > 100 | 
CCN(CC)CCNc1ccc2ncn3c4c(OC)cccc4c(=O)c1c23 | 30.5 | 17.5 | 17.6 | 25.2 |  | 25.3 | 22.8 | 13.3 | 15.2 | 19.2 | > 100 | 25.1 | 21.7
CC(=O)N1C(C(=O)NNc2ccccc2)CSC1c1ccccc1 (configuration not stated) | > 100 | > 100 | > 100 | > 100 | > 100 | 61.8 | > 100 | > 100 | > 100 | > 100 | > 100 | > 100 | 
O=c1c[n+](-c2ccccc2)[nH]o1 | > 100 | > 100 | > 100 | > 100 |  | > 100 | > 100 | > 100 | > 100 | > 100 | > 100 | > 100 | > 100
